In patent US12514866B2, “Method for treating cancer” (National Taiwan University, priority 2021, dated 2026):
Entries after “also recorded” stand apart in the source; their conditions may differ.

Legend:
H1299 lung cancer cells = assay: Immunofluorescence imaging of immune synapses between cancer and γδ T cells; assay type: cell-based, human
Protocol: (§1) For drug treatment experiments, cells were cultured with 100 nM decitabine (DAC; A3656, Sigma-Aldrich) for three days with daily change of complete medium and drug replenishment, followed by 3 to 4 days of cell recovery in the decitabine-free medium. To block the DAC's effect on immune synapse formation via actin cytoskeleton reorganization, the DAC-pretreated (D3R3) cells were treated with 1 μg/mL cytochalasin B (Cyto B; C6762, Sigma-Aldrich) for 1.5 hours prior to coculture with γδ T cells.
Cancer and γδ T cells were spun down onto poly-L-lysine coated coverslips by using a Cyto-Tek table-top cytofuge at 500 rpm for 5 minutes (Sakura Scientific) before fixation with ice-cold methanol or 4% (w/v) paraformaldehyde in PBS for 10 minutes. The fixed samples were blocked in detergent-free blocking solution [1% normal donkey serum (ab7475, abcam) and 3% BSA in PBS] without membrane permeabilization by detergents. Subsequently, cells were incubated with primary antibodies diluted in the blocking solution for 1 hour in a moist chamber at room temperature and washed with PBS. Labeling of fluorescent secondary antibodies at 1:200 dilution in PBS was carried out in the blocking buffer for 1 hour at room temperature. After PBS washing, cell nuclei were stained with Hoechst 33342 or DAPI (62248, Thermo Fisher Scientific) in PBS. Finally, the samples were washed with PBS and mounted on the slides. All slides were examined under an epifluorescence microscope EVOS FLc (Invitrogen), and the images were analyzed using the ImageJ software. For the visualization of immune synaptic proteins, cells were imaged with a high-resolution confocal microscope (LSM780, Zeiss) with a 63×oil objective and analyzed with the confocal software ZEN (Zeiss).

[1] = test system: A549 human lung cancer cells; assay: SILAC-based quantitative surface proteomics of decitabine-treated cells; assay type: cell-based; conditions: A549, both D3 and D3R3, 100 nM
Protocol: as §1
(§2) For quantitative mass spectrometry analysis, lung cancer cells were cultured for at least seven cell doublings in SILAC RPMI medium (88365, Thermo Fisher Scientific) supplemented with 10% FBS and heavy isotope-labeled amino acids (L-Lysine 13C6, L-Arginine 13C6) (CLM-2247-H-1, CLM-2265-H-1, Cambridge Isotope Laboratories). DAC-treated cells grown in the regular medium were considered as SILAC light counterparts.
(§3) Cancer cells (around 1.5×10^7 cells) were grown in a 15-cm culture dish and washed with ice-cold PBS (21040CM, Corning) before the labeling. […] The protein concentration of the supernatants was determined using Pierce 660 nm Protein Assay Reagent Kit (22660, Thermo Fisher Scientific) supplemented with Ionic Detergent Compatibility Reagent (22663, Thermo Fisher Scientific). […]

[2] = test system: A549, H1299 and CL1-0 human lung cancer cell lines; assay: SILAC-based surface proteomics compared across cell lines; conditions: D3R3, A549, H1299, CL1-0
Protocol: as §1, §2, §3

A549 lung cancer cells = assay: Real-time impedance (ECIS) monitoring of γδ T cell killing; conditions: low dose
Protocol: In addition, real-time monitoring of γδ T-mediated killing of cancer cells was performed using the Electric Cell-Substrate Impedance Sensing (ECIS) monitoring system with an 8W10E+ culture chamber (Applied Biophysics). Mock or DAC-treated cancer cells were cultured in the chamber at 37° C. overnight until the cancer cells were fully attached to the bottom of the wells. Following the addition of γδ T cells, the detachment of cancer cells indicating cell death was recorded in real-time using multiple frequency capture with the ECIS software. Relative impendence at the time of γδ T cell addition was used for between-sample normalization.

[3] = DAC D3R3 plus 1 μg/mL Cyto B 1.5 hours

SMILES	DAC-induced F-actin clustering and pTyr signaling at immune synapses (H1299 lung cancer cells; [3])	ICAM-1 expression at immune synapses (H1299 lung cancer cells; [3])	DAC effects on width of the synaptic cleft (H1299 lung cancer cells; DAC plus Cyto B)	DAC's enhancing effects on immune synapse formation (H1299 lung cancer cells; DAC plus Cyto B)	Number of proteins with sustained upregulation by at least 1.4-fold [1]	Number of proteins commonly upregulated in all three lung cancer cell lines [2]	Cytotoxicity / cell viability with DAC alone (A549 lung cancer cells)
C=C1[C@@H](C)[C@H]2[C@H](Cc3ccccc3)NC(=O)[C@]23OC(=O)/C=C/[C@H](O)CCC[C@@H](C)C/C=C/[C@H]3[C@@H]1O [cytochalasin B]	abolished	minimal effects	diminished	significantly counteracted			
Nc1ncn([C@H]2C[C@H](O)[C@@H](CO)O2)c(=O)n1 [DAC, decitabine]					314	431	does not cause significant cytotoxicity; also recorded: minimal effects on cell viability
